Measured values: paper PMC5218480 (PLoS ONE, 2017)

Test system: MV-4-11 cells
Assay: Gene expression microarray analysis (Affymetrix PrimeView) and GSEA
Type: cell-based, human
Design: RFU PODN (11730768_x_at) / Fold change /veh PODN (11730768_x_at) / RFU LINC00158 (11744669_a_at) / Fold change /veh LINC00158 (11744669_a_at) / RFU DUSP10 (11751237_a_at) / Fold change /veh DUSP10 (11751237_a_at) / RFU ID3 (11757404_x_at) / Fold change /veh ID3 (11757404_x_at) / RFU PLEKHG5 (11737974_s_at) / Fold change /veh PLEKHG5 (11737974_s_at) / RFU LRRC4B (11730491_at) / Fold change /veh LRRC4B (11730491_at) / RFU GIMAP4 (11747438_a_at) / Fold change /veh GIMAP4 (11747438_a_at) / RFU KRT8 (11758183_x_at) / Fold change /veh KRT8 (11758183_x_at) / RFU CNN1 (11734310_a_at) / Fold change /veh CNN1 (11734310_a_at) / RFU VPS37D (11726825_at) / Fold change /veh VPS37D (11726825_at) / RFU C10orf10 (11716522_x_at) / Fold change /veh C10orf10 (11716522_x_at) / RFU KIR2DL2 /// KIR2DL4 /// KIR2DL5A /// KIR2DL5B /// KIR2DS1 /// KIR2DS2 /// KIR2DS3 /// KIR2DS4 /// KIR3DL3 /// KIR3DL3 /// KIR3DS1 (11738374_at) / Fold change /veh KIR2DL2 /// KIR2DL4 /// KIR2DL5A /// KIR2DL5B /// KIR2DS1 /// KIR2DS2 /// KIR2DS3 /// KIR2DS4 /// KIR3DL3 /// KIR3DL3 /// KIR3DS1 (11738374_at) / RFU C1QL1 (11718748_at) / Fold change /veh C1QL1 (11718748_at) / RFU TMPRSS4 (11747572_a_at) / Fold change /veh TMPRSS4 (11747572_a_at) / RFU HAMP (11756126_x_at) / Fold change /veh HAMP (11756126_x_at) / RFU RNFT2 (11725882_a_at) / Fold change /veh RNFT2 (11725882_a_at) / RFU NR4A2 (11747474_a_at) / Fold change /veh NR4A2 (11747474_a_at) / RFU ABCC12 (11746883_a_at) / Fold change /veh ABCC12 (11746883_a_at) / RFU TMEM136 (11760407_x_at) / Fold change /veh TMEM136 (11760407_x_at) / RFU CLDN22 /// WWC2 (11732394_at) / Fold change /veh CLDN22 /// WWC2 (11732394_at) / RFU HLA-DPB1 (11760878_x_at) / Fold change /veh HLA-DPB1 (11760878_x_at) / RFU SPINT1 (11716480_a_at) / Fold change /veh SPINT1 (11716480_a_at) / RFU GAP43 (11754022_s_at) / Fold change /veh GAP43 (11754022_s_at) / RFU A4GNT (11735810_at) / Fold change /veh A4GNT (11735810_at) / RFU PRB3 (11715151_x_at) / Fold change /veh PRB3 (11715151_x_at) / RFU TUBB4B (11761932_at) / Fold change /veh TUBB4B (11761932_at) / RFU CAPN14 (11732068_a_at) / Fold change /veh CAPN14 (11732068_a_at) / RFU TMCC2 (11721928_a_at) / Fold change /veh TMCC2 (11721928_a_at) / RFU IRGQ (11745062_a_at) / Fold change /veh IRGQ (11745062_a_at) / RFU FAM174B (11720279_a_at) / Fold change /veh FAM174B (11720279_a_at) / RFU TMPRSS4 (11748680_a_at) / Fold change /veh TMPRSS4 (11748680_a_at) / RFU FAM212B (11763350_a_at) / Fold change /veh FAM212B (11763350_a_at) / RFU PLEKHG5 (11743358_a_at) / Fold change /veh PLEKHG5 (11743358_a_at) / RFU ZSCAN30 (11745921_a_at) / Fold change /veh ZSCAN30 (11745921_a_at) / RFU CMKLR1 (11741424_a_at) / Fold change /veh CMKLR1 (11741424_a_at) / RFU LOC101060620 /// MAPK8IP1 (11723275_at) / Fold change /veh LOC101060620 /// MAPK8IP1 (11723275_at) / RFU SPTSSB (11747773_x_at) / Fold change /veh SPTSSB (11747773_x_at) / RFU PRSS12 (11739890_at) / Fold change /veh PRSS12 (11739890_at) / RFU BIN1 (11741810_x_at) / Fold change /veh BIN1 (11741810_x_at) / RFU WNT11 (11732464_a_at) / Fold change /veh WNT11 (11732464_a_at) / RFU C10orf10 (11716521_a_at) / Fold change /veh C10orf10 (11716521_a_at) / RFU C5orf56 (11738089_at) / Fold change /veh C5orf56 (11738089_at) / RFU CYB561 (11721691_x_at) / Fold change /veh CYB561 (11721691_x_at) / RFU ANKRD19P (11752326_a_at) / Fold change /veh ANKRD19P (11752326_a_at) / RFU OR2T12 /// OR2T33 /// OR2T8 (11738714_s_at) / Fold change /veh OR2T12 /// OR2T33 /// OR2T8 (11738714_s_at) / RFU VCAN (11748164_a_at) / Fold change /veh VCAN (11748164_a_at) / RFU JSRP1 (11732532_at) / Fold change /veh JSRP1 (11732532_at) / RFU KRTAP10-11 (11738290_x_at) / Fold change /veh KRTAP10-11 (11738290_x_at) / RFU MYO3A (11730013_a_at) / Fold change /veh MYO3A (11730013_a_at) / RFU EBF3 (11725865_a_at) / Fold change /veh EBF3 (11725865_a_at) / RFU CAMK2N1 (11719241_x_at) / Fold change /veh CAMK2N1 (11719241_x_at) / RFU C5orf56 (11738088_a_at) / Fold change /veh C5orf56 (11738088_a_at) / RFU OLFML3 (11715873_a_at) / Fold change /veh OLFML3 (11715873_a_at) / RFU LOC100653217 /// NTM (11731650_a_at) / Fold change /veh LOC100653217 /// NTM (11731650_a_at) / RFU MAPK11 (11762145_a_at) / Fold change /veh MAPK11 (11762145_a_at) / RFU FIZ1 (11724087_x_at) / Fold change /veh FIZ1 (11724087_x_at) / RFU OASL (11726364_x_at) / Fold change /veh OASL (11726364_x_at) / RFU SOX15 (11748057_x_at) / Fold change /veh SOX15 (11748057_x_at) / RFU CD79A (11719716_a_at) / Fold change /veh CD79A (11719716_a_at) / RFU HIST1H1D (11736915_at) / Fold change /veh HIST1H1D (11736915_at) / RFU CASKIN2 (11723855_a_at) / Fold change /veh CASKIN2 (11723855_a_at) / RFU LOC730098 (11760151_x_at) / Fold change /veh LOC730098 (11760151_x_at) / RFU OR4N2 (11742367_at) / Fold change /veh OR4N2 (11742367_at) / RFU PRRT2 (11749266_a_at) / Fold change /veh PRRT2 (11749266_a_at) / RFU SNX32 (11753110_a_at) / Fold change /veh SNX32 (11753110_a_at) / RFU CDHR5 (11726645_a_at) / Fold change /veh CDHR5 (11726645_a_at) / RFU RCAN1 (11760418_a_at) / Fold change /veh RCAN1 (11760418_a_at) / RFU FAM167A (11723789_a_at) / Fold change /veh FAM167A (11723789_a_at) / RFU FAM26E (11764081_at) / Fold change /veh FAM26E (11764081_at) / RFU ISYNA1 (11749810_s_at) / Fold change /veh ISYNA1 (11749810_s_at) / RFU ACY1 (11761880_at) / Fold change /veh ACY1 (11761880_at) / RFU 11764098_at / Fold change /veh 11764098_at / RFU SAMD14 (11745864_x_at) / Fold change /veh SAMD14 (11745864_x_at) / RFU NPB (11741838_a_at) / Fold change /veh NPB (11741838_a_at) / RFU TMPRSS6 (11731388_a_at) / Fold change /veh TMPRSS6 (11731388_a_at) / RFU KRTAP10-2 (11738614_at) / Fold change /veh KRTAP10-2 (11738614_at) / RFU ARHGAP8 /// PRR5-ARHGAP8 (11727945_x_at) / Fold change /veh ARHGAP8 /// PRR5-ARHGAP8 (11727945_x_at) / RFU KRTAP5-7 /// NADSYN1 (11734609_at) / Fold change /veh KRTAP5-7 /// NADSYN1 (11734609_at) / RFU RASL12 (11751679_a_at) / Fold change /veh RASL12 (11751679_a_at) / RFU CDKN2B (11736163_a_at) / Fold change /veh CDKN2B (11736163_a_at) / RFU PRF1 (11729649_at) / Fold change /veh PRF1 (11729649_at) / RFU, ZNF638 /// ZNF638-IT1 / Fold change vs veh, ZNF638 /// ZNF638-IT1 / RFU, PANK3 / Fold change vs veh, PANK3 / RFU, SH3YL1 / Fold change vs veh, SH3YL1 / RFU, ZEB2 / Fold change vs veh, ZEB2 / RFU, NRIP1 / Fold change vs veh, NRIP1 / RFU, PTTG1IP / Fold change vs veh, PTTG1IP / RFU, CAPN2 / Fold change vs veh, CAPN2 / RFU, MED14 / Fold change vs veh, MED14 / RFU, SNORA58 / Fold change vs veh, SNORA58 / RFU, C1orf63 / Fold change vs veh, C1orf63 / RFU, LRRFIP1 / Fold change vs veh, LRRFIP1 / RFU, NDUFAF7 / Fold change vs veh, NDUFAF7 / RFU, SLC12A2 / Fold change vs veh, SLC12A2 / RFU, IBTK / Fold change vs veh, IBTK / RFU, ESF1 / Fold change vs veh, ESF1 / Fold change vs veh, TMEM50B / RFU, TAOK1 / Fold change vs veh, TAOK1 / RFU, ACBD3 / Fold change vs veh, ACBD3 / RFU, TMA16 / Fold change vs veh, TMA16 / RFU, RWDD3 / Fold change vs veh, RWDD3 / RFU, BCAT1 / Fold change vs veh, BCAT1 / RFU, EDEM3 / Fold change vs veh, EDEM3 / RFU, TMEM33 / Fold change vs veh, TMEM33 / RFU, WDR75 / Fold change vs veh, WDR75 / RFU, AHCTF1 / Fold change vs veh, AHCTF1 / RFU, TFRC / Fold change vs veh, TFRC / RFU, ZDHHC17 / Fold change vs veh, ZDHHC17 / RFU, NOM1 / Fold change vs veh, NOM1 / RFU, ARL8B / Fold change vs veh, ARL8B / RFU, ZBTB11 / Fold change vs veh, ZBTB11 / RFU, TAMM41 / Fold change vs veh, TAMM41 / RFU, KIAA1704 /// LOC100996395 / Fold change vs veh, KIAA1704 /// LOC100996395 / RFU, ING1 / Fold change vs veh, ING1 / RFU, TRMT61B / Fold change vs veh, TRMT61B / RFU, FUBP3 / Fold change vs veh, FUBP3 / RFU, TP53 / Fold change vs veh, TP53 / RFU, TNKS2 / Fold change vs veh, TNKS2 / RFU, ZFP14 / Fold change vs veh, ZFP14 / RFU, ACTR2 / Fold change vs veh, ACTR2 / RFU, PPP3R1 / Fold change vs veh, PPP3R1 / RFU, PIK3R1 / Fold change vs veh, PIK3R1 / RFU, HNRNPA1 / Fold change vs veh, HNRNPA1 / RFU, RNF170 / Fold change vs veh, RNF170 / RFU, ZNF28 / Fold change vs veh, ZNF28 / RFU, RNGTT / Fold change vs veh, RNGTT / RFU, OGT / Fold change vs veh, OGT / RFU, BRD1 / Fold change vs veh, BRD1 / RFU, MARS / Fold change vs veh, MARS / RFU, ZNF655 / Fold change vs veh, ZNF655 / RFU, FAHD1 / Fold change vs veh, FAHD1 / RFU, BDP1 / Fold change vs veh, BDP1 / RFU, LRRCC1 / Fold change vs veh, LRRCC1 / RFU, ARID1A / Fold change vs veh, ARID1A / RFU, ZNF146 / Fold change vs veh, ZNF146 / RFU, ZNF330 / Fold change vs veh, ZNF330 / RFU, GPN3 / Fold change vs veh, GPN3 / RFU, C9orf123 / Fold change vs veh, C9orf123 / RFU, N4BP2L2 / Fold change vs veh, N4BP2L2 / RFU, ARFIP1 / Fold change vs veh, ARFIP1 / RFU, FAM179B / Fold change vs veh, FAM179B / RFU, BCL10 / Fold change vs veh, BCL10 / RFU, UHRF1BP1L / Fold change vs veh, UHRF1BP1L / RFU, BET1 / Fold change vs veh, BET1 / RFU, CNOT2 / Fold change vs veh, CNOT2 / RFU, ZNF268 / Fold change vs veh, ZNF268 / Fold change vs veh, ZNF507 / RFU, DGCR2 / Fold change vs veh, DGCR2 / RFU, WDSUB1 / Fold change vs veh, WDSUB1 / Fold change vs veh, HSP90B1 /// MIR3652 / RFU, ADSS / Fold change vs veh, ADSS / RFU, GK / Fold change vs veh, GK / RFU, ZNF148 / Fold change vs veh, ZNF148 / RFU, TAF9 / Fold change vs veh, TAF9 / RFU, SLC1A5 / Fold change vs veh, SLC1A5 / RFU, SLMO2 / Fold change vs veh, SLMO2 / RFU, ABCC4 / Fold change vs veh, ABCC4 / RFU, LOC101060439 /// RAP1B / Fold change vs veh, LOC101060439 /// RAP1B / RFU, RFX7 / Fold change vs veh, RFX7 / RFU, GTPBP10 / Fold change vs veh, GTPBP10 / RFU, CNEP1R1 / Fold change vs veh, CNEP1R1 / RFU, BIVM-ERCC5 /// ERCC5 / Fold change vs veh, BIVM-ERCC5 /// ERCC5 / RFU, ILF3 / Fold change vs veh, ILF3 / RFU 11762660_at / Fold change /veh 11762660_at / RFU VCAN (11757783_s_at) / Fold change /veh VCAN (11757783_s_at) / RFU DDX43 (11728927_at) / Fold change /veh DDX43 (11728927_at) / RFU KRT8 (11758188_x_at) / Fold change /veh KRT8 (11758188_x_at) / RFU NKD1 (11759106_at) / Fold change /veh NKD1 (11759106_at) / RFU SRD5A1 (11742802_a_at) / Fold change /veh SRD5A1 (11742802_a_at) / RFU TPSAB1 /// TPSB2 (11721975_s_at) / Fold change /veh TPSAB1 /// TPSB2 (11721975_s_at) / RFU GSTM3 (11746129_a_at) / Fold change /veh GSTM3 (11746129_a_at) / RFU IL23R (11737362_x_at) / Fold change /veh IL23R (11737362_x_at) / RFU TMEM51 (11727254_a_at) / Fold change /veh TMEM51 (11727254_a_at) / RFU PIWIL2 (11732686_x_at) / Fold change /veh PIWIL2 (11732686_x_at) / RFU ORM1 (11744905_x_at) / Fold change /veh ORM1 (11744905_x_at) / RFU CCDC152 (11743942_at) / Fold change /veh CCDC152 (11743942_at) / RFU ECM1 (11717891_a_at) / Fold change /veh ECM1 (11717891_a_at) / RFU IL23R (11748794_a_at) / Fold change /veh IL23R (11748794_a_at) / RFU TNFAIP8L3 (11732012_x_at) / Fold change /veh TNFAIP8L3 (11732012_x_at) / RFU MBOAT4 (11741988_at) / Fold change /veh MBOAT4 (11741988_at) / RFU 11764193_at / Fold change /veh 11764193_at / RFU TMEM53 (11763286_at) / Fold change /veh TMEM53 (11763286_at) / RFU MAGEB2 (11727129_at) / Fold change /veh MAGEB2 (11727129_at) / RFU TMEM200A (11744735_a_at) / Fold change /veh TMEM200A (11744735_a_at) / RFU CCDC152 (11751479_a_at) / Fold change /veh CCDC152 (11751479_a_at) / RFU FAM211A (11726209_a_at) / Fold change /veh FAM211A (11726209_a_at) / RFU RGS16 (11746705_a_at) / Fold change /veh RGS16 (11746705_a_at) / RFU VCAN (11755009_s_at) / Fold change /veh VCAN (11755009_s_at) / RFU RHOB (11743442_s_at) / Fold change /veh RHOB (11743442_s_at) / RFU RGS16 (11720943_a_at) / Fold change /veh RGS16 (11720943_a_at) / RFU RGS16 (11720944_at) / Fold change /veh RGS16 (11720944_at) / RFU, VPS4B / Fold change vs veh, VPS4B / RFU, CREB1 / Fold change vs veh, CREB1 / RFU, DNAJC13 / Fold change vs veh, DNAJC13 / RFU, GNAQ / Fold change vs veh, GNAQ / RFU, CDK5R1 / Fold change vs veh, CDK5R1 / RFU, ZRANB3 / Fold change vs veh, ZRANB3 / RFU, CUL4A / Fold change vs veh, CUL4A / RFU, CCNY / Fold change vs veh, CCNY / RFU, UFL1 / Fold change vs veh, UFL1 / RFU, COG3 / Fold change vs veh, COG3 / RFU, DIAPH2 / Fold change vs veh, DIAPH2 / RFU, SKA2 / Fold change vs veh, SKA2 / RFU, AFF3 / Fold change vs veh, AFF3 / RFU, LMF1 / Fold change vs veh, LMF1 / RFU, IPO11 / Fold change vs veh, IPO11 / RFU, DFFB / Fold change vs veh, DFFB / RFU, FOXP1 / Fold change vs veh, FOXP1 / RFU, CARD8 / Fold change vs veh, CARD8 / RFU, STRN3 / Fold change vs veh, STRN3 / RFU, ADK / Fold change vs veh, ADK / RFU, RASSF2 / Fold change vs veh, RASSF2 / RFU, WIPF1 / Fold change vs veh, WIPF1 / RFU, LARP1B / Fold change vs veh, LARP1B / RFU, RASA1 / Fold change vs veh, RASA1 / RFU, RB1 / Fold change vs veh, RB1 / RFU, PPFIA1 / Fold change vs veh, PPFIA1 / RFU, MAT2A / Fold change vs veh, MAT2A / RFU, CCT5 / Fold change vs veh, CCT5 / RFU, WDR92 / Fold change vs veh, WDR92 / RFU, CUX1 / Fold change vs veh, CUX1 / RFU, TTC7A / Fold change vs veh, TTC7A / RFU, TMEM135 / Fold change vs veh, TMEM135 / RFU, DEPTOR / Fold change vs veh, DEPTOR / RFU, CPM / Fold change vs veh, CPM / RFU, DNAJB6 / Fold change vs veh, DNAJB6 / RFU, CACNA2D3 / Fold change vs veh, CACNA2D3 / RFU, DTX4 / Fold change vs veh, DTX4 / RFU, TFCP2 / Fold change vs veh, TFCP2 / RFU, GMCL1 /// GMCL1P1 / Fold change vs veh, GMCL1 /// GMCL1P1 / RFU, AEBP2 / Fold change vs veh, AEBP2 / RFU, SNHG1 /// SNORD22 /// SNORD25 /// SNORD26 /// SNORD27 /// SNORD28 /// SNORD29 /// SNORD31 / Fold change vs veh, SNHG1 /// SNORD22 /// SNORD25 /// SNORD26 /// SNORD27 /// SNORD28 /// SNORD29 /// SNORD31 / Fold change (Aza/veh), C12orf56 (ProbeSet 11735607_a_at) / Fold change (ACY-1035/veh), C12orf56 (ProbeSet 11735607_a_at) / Fold change (Aza/veh), FGFR1OP (ProbeSet 11751329_s_at) / Fold change (ACY-1035/veh), FGFR1OP (ProbeSet 11751329_s_at) / Fold change (Aza/veh), VPS36 (ProbeSet 11739960_a_at) / Fold change (ACY-1035/veh), VPS36 (ProbeSet 11739960_a_at) / RFU SYPL1 (11715823_x_at) / Fold change /veh SYPL1 (11715823_x_at) / RFU IGFBP7 (11715501_s_at) / Fold change /veh IGFBP7 (11715501_s_at) / RFU REEP3 (11722064_at) / Fold change /veh REEP3 (11722064_at) / RFU IGLL1 (11728026_x_at) / Fold change /veh IGLL1 (11728026_x_at): dose or concentration left out as unconfirmed
Details: ProbeSet 11741199_a_at; LIST B

Nc1ncn([C@@H]2O[C@H](CO)[C@@H](O)[C@H]2O)c(=O)n1 [azacitidine]
RFU, LRRCC1: 65.24 RFU
